Key:
[1] = system: newly diagnosed type II diabetes patients; assay: Fasting fructosamine, 14-day repeat-dose placebo-controlled study; assay type: in vivo, human; settings: for Fasting Fructosamine, Difference in Change from Baseline from Placebo, LS Mean: Day 15, ANCOVA
[2] = system: Male db/db (BKS.Cg-+Lepr^db/+Lepr^db) mice; assay: Co-administration with pioglitazone: glycosylated hemoglobin levels in mice; assay type: in vivo; settings: 21 days in powder chow: 0.03% (w/w) benzoate salt of Compound I and/or 0.0075% (w/w) pioglitazone hydrochloride, n=8, mean ± SD
Procedure: Male db/db (BKS.Cg-+Lepr^db/+Lepr^db) mice (6 weeks of age, CLEA Japan (Tokyo, Japan)) were divided into 4 groups (n=8 in each group) comprising Group A to Group D. Group A had free access to CE-2 powder chow (CLEA Japan) for 21 days. […] Group C had free access to CE-2 powder chow (CLEA Japan) containing 0.0075% (w/w) of pioglitazone hydrochloride for 21 days. The dose of pioglitazone in Group C was calculated to be 15.4±1.5 (mean±SD) mg/kg body weight/day. […] During 21 days of administration of the powder chow, there were not significant differences in the administration amount of the powder chow in the above 4 groups. After 21 days of administration of the powder chow, blood samples were taken from the orbital veins of the mice by capillary pipette under feeding condition, and Glycosylated hemoglobin levels were measured by HPLC-based method using TOSOH automated GHb Analyzer HLC-723 G7 (TOSOH, Japan).
The values in the table means average (n=8)±standard deviation.

[3] = system: newly diagnosed type II diabetes patients; assay: 4-hour postprandial plasma glucose (Cavg) following breakfast, 14-day repeat-dose placebo-controlled study; assay type: in vivo, human; settings: for mean reduction from baseline in Cavg B / mean reduction in Cavg B calculated as a percent change: fourteen days of treatment; for 4-hour postprandial plasma glucose following breakfast, Day 14 Actual, Mean: 14 days; for 4-hour postprandial plasma glucose, Difference in Change from Baseline from Placebo, LS Mean: Day 14, ANCOVA; for 4-hour postprandial plasma glucose following breakfast, Day 14 Change from Baseline, Mean: baseline Day −1
Source text: Data was collected at each study visit.
The primary efficacy analysis was based on change in mean 4-hour prandial glucose concentrations (Cavg) from Day −1 to Day 14. Table A summarizes the primary efficacy endpoint measured following breakfast.

[4] = system: newly diagnosed type II diabetes patients; assay: Fasting fructosamine, 14-day repeat-dose placebo-controlled study; assay type: in vivo, human; settings: for Fasting Fructosamine, Day 15 Actual, Mean: type II diabetes patients; for Fasting Fructosamine, Difference in Change from Baseline from Placebo, LS Mean: Day 15, ANCOVA; for Fasting Fructosamine, Day 15 Change from Baseline, Mean: baseline Day −7
Procedure: (§1) Blood samples were collected on Days 6, 16, 17, and 21 for analysis of efficacy based on change in mean 4-hour postprandial plasma glucose (Cavg) from Day −1 to Day 14. Secondary efficacy endpoints included mean 4-hour prandial fructosamine, and glycosylated hemoglobin (HbA1c). Data was collected at each study visit. Inhibition of DPPIV activity was also determined using an assay validated for human plasma samples.

[5] = system: newly diagnosed type II diabetes patients; assay: Glycosylated hemoglobin (HbA1c), 14-day repeat-dose placebo-controlled study; assay type: in vivo, human; settings: one time per day at the specified dosage levels, extended treatment; expected
[6] = system: newly diagnosed type II diabetes patients; assay: as above; assay type: in vivo, human; settings: for HbA1c, Difference in Change from Baseline from Placebo, LS Mean: Day 15, ANCOVA; for HbA1c, Day 15 Change from Baseline, Mean: baseline Day −7
Procedure: as §1

Cn1c(=O)cc(N2CCC[C@@H](N)C2)n(Cc2ccccc2C#N)c1=O [Compound I, 2-[[6-[(3R)-3-amino-1-piperidinyl]-3,4-dihydro-3-methyl-2,4-dioxo-1(2H)-pyrimidinyl]methyl]-benzonitrile]
Fasting Fructosamine, Day 15 Change from Baseline, Mean ([1]; 25 mg/day, baseline Day −7): 6.3 µmol/L
Fasting Fructosamine, Difference in Change from Baseline from Placebo, LS Mean ([1]; 100 mg/day): -42.9 µmol/L
Fasting Fructosamine, Difference in Change from Baseline from Placebo, LS Mean ([1]; 400 mg/day): -33.2 µmol/L
Fasting Fructosamine, Day 15 Actual, Mean ([1]; All Active, 14 days): 295.3 µmol/L
Glycosylated Hemoglobin (%) [2]: 5.8 ± 0.5%
mean reduction from baseline in Cavg B ([3]; 25 mg group): 33 mg/dL
mean reduction in Cavg B calculated as a percent change ([3]; 25 mg group): 15%
4-hour postprandial plasma glucose following breakfast, Day 14 Actual, Mean ([3]; 25 mg/day, type II diabetes patients): 203.2 mg/dL
4-hour postprandial plasma glucose, Difference in Change from Baseline from Placebo, LS Mean ([3]; 25 mg/day): -39.9 mg/dL
4-hour postprandial plasma glucose following breakfast, Day 14 Change from Baseline, Mean ([3]; 25 mg/day): -32.5 mg/dL
mean reduction from baseline in Cavg B ([3]; 100 mg group): 37 mg/dL
mean reduction in Cavg B calculated as a percent change ([3]; 100 mg group): 17%
4-hour postprandial plasma glucose following breakfast, Day 14 Actual, Mean ([3]; 100 mg/day, type II diabetes patients): 173.5 mg/dL
4-hour postprandial plasma glucose, Difference in Change from Baseline from Placebo, LS Mean ([3]; 100 mg/day): -48.6 mg/dL
4-hour postprandial plasma glucose following breakfast, Day 14 Change from Baseline, Mean ([3]; 100 mg/day): -37.2 mg/dL
mean reduction from baseline in Cavg B ([3]; 400 mg group): 66 mg/dL
mean reduction in Cavg B calculated as a percent change ([3]; 400 mg group): 24%
4-hour postprandial plasma glucose following breakfast, Day 14 Actual, Mean ([3]; 400 mg/day, type II diabetes patients): 198.6 mg/dL
4-hour postprandial plasma glucose, Difference in Change from Baseline from Placebo, LS Mean ([3]; 400 mg/day): -68.3 mg/dL
4-hour postprandial plasma glucose following breakfast, Day 14 Change from Baseline, Mean ([3]; 400 mg/day): -65.6 mg/dL
4-hour postprandial plasma glucose following breakfast, Day 14 Actual, Mean ([3]; All Active (25, 100, 400 mg/day combined)): 191.8 mg/dL
4-hour postprandial plasma glucose, Difference in Change from Baseline from Placebo, LS Mean ([3]; All Active): -52.3 mg/dL
4-hour postprandial plasma glucose following breakfast, Day 14 Change from Baseline, Mean ([3]; All Active): -44.3 mg/dL
Fasting Fructosamine, Day 15 Actual, Mean ([4]; 25 mg/day for 14 days): 310.7 µmol/L
Fasting Fructosamine, Difference in Change from Baseline from Placebo, LS Mean ([4]; 25 mg/day): -9.6 µmol/L
Fasting Fructosamine, Day 15 Actual, Mean ([4]; 100 mg/day for 14 days): 263.9 µmol/L
Fasting Fructosamine, Day 15 Change from Baseline, Mean ([4]; 100 mg/day): -25.6 µmol/L
Fasting Fructosamine, Day 15 Actual, Mean ([4]; 400 mg/day for 14 days): 312.6 µmol/L
Fasting Fructosamine, Day 15 Change from Baseline, Mean ([4]; 400 mg/day): -19.9 µmol/L
Fasting Fructosamine, Difference in Change from Baseline from Placebo, LS Mean ([4]; All Active): -28.6 µmol/L
Fasting Fructosamine, Day 15 Change from Baseline, Mean ([4]; All Active): -12.9 µmol/L
decrease of hemoglobin A1c level compared to placebo control [5]: greater than 0.5%
Glycosylated Hemoglobin (HbA1c), Day 15 Actual, Mean ([6]; 25 mg/day for 14 days, type II diabetes patients): 7.76%
HbA1c, Difference in Change from Baseline from Placebo, LS Mean ([6]; 25 mg/day): −0.27%
HbA1c, Day 15 Change from Baseline, Mean ([6]; 25 mg/day): −0.22%
Glycosylated Hemoglobin (HbA1c), Day 15 Actual, Mean ([6]; 100 mg/day for 14 days, type II diabetes patients): 7.25%
HbA1c, Difference in Change from Baseline from Placebo, LS Mean ([6]; 100 mg/day): −0.45%
HbA1c, Day 15 Change from Baseline, Mean ([6]; 100 mg/day): −0.40%
Glycosylated Hemoglobin (HbA1c), Day 15 Actual, Mean ([6]; 400 mg/day for 14 days, type II diabetes patients): 7.82%
HbA1c, Difference in Change from Baseline from Placebo, LS Mean ([6]; 400 mg/day): −0.32%
HbA1c, Day 15 Change from Baseline, Mean ([6]; 400 mg/day): −0.28%
Glycosylated Hemoglobin (HbA1c), Day 15 Actual, Mean ([6]; All Active, 14 days): 7.60%
HbA1c, Difference in Change from Baseline from Placebo, LS Mean ([6]; All Active): −0.35%
HbA1c, Day 15 Change from Baseline, Mean ([6]; All Active): −0.30%

CCc1ccc(CCOc2ccc(CC3SC(=O)NC3=O)cc2)nc1 (stereo not drawn) [Pioglitazone, 5-{[4-(2-(5-ethyl-2-pyridyl)ethoxy)phenyl]-methyl}-thiazolidine-2,4-dione, reference compound]
Glycosylated Hemoglobin (%) [2]: 5.0 ± 0.7%
